Our source for the Ki values is ChEMBL document CHEMBL5316313, “Discovery of Novel 3-Phenylpiperidine Derivatives Targeting the β-Catenin/B-Cell Lymphoma 9 Interaction as a Single Agent and in Combination with the Anti-PD-1 Antibody for the Treatment of Colorectal Cancer” (J Med Chem, 2023).

Experiment [1] concerns the target T1, beta-catenin-B-cell lymphoma 9 protein complex (Homo sapiens, UniProt P35222).
T1 sequence (P35222 whole entry): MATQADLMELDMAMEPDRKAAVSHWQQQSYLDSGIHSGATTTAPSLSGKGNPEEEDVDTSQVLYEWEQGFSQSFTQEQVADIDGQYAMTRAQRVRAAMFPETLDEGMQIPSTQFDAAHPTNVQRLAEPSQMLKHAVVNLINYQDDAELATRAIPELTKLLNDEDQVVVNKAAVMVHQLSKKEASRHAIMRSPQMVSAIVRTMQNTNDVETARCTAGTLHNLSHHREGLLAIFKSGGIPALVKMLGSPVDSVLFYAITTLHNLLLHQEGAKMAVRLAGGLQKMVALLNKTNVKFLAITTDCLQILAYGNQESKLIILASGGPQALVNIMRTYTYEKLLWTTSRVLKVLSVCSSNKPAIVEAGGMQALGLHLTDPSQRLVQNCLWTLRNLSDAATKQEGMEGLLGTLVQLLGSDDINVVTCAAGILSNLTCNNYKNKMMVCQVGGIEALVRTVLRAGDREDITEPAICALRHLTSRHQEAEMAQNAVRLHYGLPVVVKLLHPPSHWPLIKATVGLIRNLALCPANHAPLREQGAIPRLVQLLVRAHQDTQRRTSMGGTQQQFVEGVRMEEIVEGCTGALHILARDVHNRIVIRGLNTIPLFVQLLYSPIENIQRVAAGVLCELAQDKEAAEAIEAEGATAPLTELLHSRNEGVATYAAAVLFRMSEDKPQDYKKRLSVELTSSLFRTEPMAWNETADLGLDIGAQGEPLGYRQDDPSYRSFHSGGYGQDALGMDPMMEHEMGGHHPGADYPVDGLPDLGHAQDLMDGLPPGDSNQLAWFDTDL
T1 sequence (O00512 whole entry): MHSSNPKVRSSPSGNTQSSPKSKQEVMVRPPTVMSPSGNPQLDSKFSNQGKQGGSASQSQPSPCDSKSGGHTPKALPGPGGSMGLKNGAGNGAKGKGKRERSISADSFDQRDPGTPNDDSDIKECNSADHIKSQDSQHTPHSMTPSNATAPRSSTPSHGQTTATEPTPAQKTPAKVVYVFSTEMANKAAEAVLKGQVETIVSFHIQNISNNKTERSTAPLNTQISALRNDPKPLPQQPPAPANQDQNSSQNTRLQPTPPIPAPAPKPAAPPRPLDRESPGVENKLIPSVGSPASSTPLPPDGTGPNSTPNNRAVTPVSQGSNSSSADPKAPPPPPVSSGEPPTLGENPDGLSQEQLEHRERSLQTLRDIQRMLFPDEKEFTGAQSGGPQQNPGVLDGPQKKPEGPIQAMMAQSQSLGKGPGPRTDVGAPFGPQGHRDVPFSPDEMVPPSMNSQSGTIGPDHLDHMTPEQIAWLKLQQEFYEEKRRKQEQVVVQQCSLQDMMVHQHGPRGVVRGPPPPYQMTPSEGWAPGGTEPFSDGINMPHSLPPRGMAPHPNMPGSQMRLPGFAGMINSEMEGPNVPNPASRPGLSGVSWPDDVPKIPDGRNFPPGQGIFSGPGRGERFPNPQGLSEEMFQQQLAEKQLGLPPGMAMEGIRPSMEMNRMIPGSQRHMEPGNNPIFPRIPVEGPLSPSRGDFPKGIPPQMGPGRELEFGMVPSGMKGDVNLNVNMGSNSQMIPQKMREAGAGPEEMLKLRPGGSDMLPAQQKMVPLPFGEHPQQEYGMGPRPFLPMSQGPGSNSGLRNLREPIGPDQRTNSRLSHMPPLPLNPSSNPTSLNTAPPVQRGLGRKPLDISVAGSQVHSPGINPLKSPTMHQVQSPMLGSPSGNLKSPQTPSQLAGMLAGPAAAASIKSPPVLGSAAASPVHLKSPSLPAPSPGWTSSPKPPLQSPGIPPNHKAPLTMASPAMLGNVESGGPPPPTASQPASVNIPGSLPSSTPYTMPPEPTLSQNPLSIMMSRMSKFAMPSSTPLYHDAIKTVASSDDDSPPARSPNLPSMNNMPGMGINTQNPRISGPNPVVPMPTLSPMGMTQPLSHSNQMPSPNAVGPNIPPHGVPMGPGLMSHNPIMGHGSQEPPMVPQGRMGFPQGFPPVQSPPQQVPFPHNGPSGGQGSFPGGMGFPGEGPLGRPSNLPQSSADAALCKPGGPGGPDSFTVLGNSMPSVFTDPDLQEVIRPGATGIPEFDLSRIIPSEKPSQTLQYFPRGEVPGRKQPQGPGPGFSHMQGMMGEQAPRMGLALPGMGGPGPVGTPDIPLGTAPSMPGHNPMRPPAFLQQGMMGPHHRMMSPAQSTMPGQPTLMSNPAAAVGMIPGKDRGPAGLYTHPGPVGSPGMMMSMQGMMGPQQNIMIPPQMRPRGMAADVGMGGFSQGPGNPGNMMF
Nature of the experiment: Inhibition of beta-catenin (unknown origin)/human BCL9 (350 to 375 residues) protein-protein interaction assessed as inhibition constant by AlphaScreen assay. It is filed as protein-complex assay. Background: Alpha assays give light when donor and acceptor beads are brought close together.

Experiment [2] has as its target T1, beta-catenin-B-cell lymphoma 9 protein complex. Nature of the experiment: Inhibition of beta-catenin (unknown origin)/BCL9 (unknown origin) protein-protein interaction assessed as inhibition constant by AlphaScreen assay. It is filed as protein-complex assay.
Experiment [3] shares this target. The experiment is described as follows: Inhibition of full-length recombinant beta-catenin (1 to 781 residues) (unknown origin)/N-terminal biotinylated BCL9-HD2 (unknown origin) protein-protein interaction assessed as inhibition constant incubated for 90 mins by AlphaScreen assay. In kind it is protein-complex assay.
For experiment [4] the target is unchanged. The experiment is described as follows: Inhibition of FLAG tagged human beta-catenin/FLAG-tagged human BCL9 HD2 (343 to 396 residues) expressed in Escherichia coli BL21 protein-protein interaction assessed as inhibition constant by ELISA. Background: In an ELISA, binding on a coated surface is turned into a signal by an enzyme label.

Consider `O=C(Nc1ccc(O[C@@H]2CCNC2)c(-c2ccc(F)cc2)c1)c1ccc(O[C@H]2CCNC2)c(-c2ccc(F)c(F)c2)c1`, for which the Ki in experiment [1] stood at 2100 nM.
`O=C(Nc1ccc(O[C@H]2CCNC2)c(-c2cccc(-c3nn[nH]n3)c2)c1)c1ccc(O[C@H]2CCNC2)c(-c2ccc(F)c(F)c2)c1`: the Ki in experiment [2] was found to be 470 nM.
As for `CC1CCCN(CCCNC(=O)C2=Cc3sc4c(c3CS2)CCCC4)C1` (centres undefined), the Ki in experiment [3] was found to be 9000 nM.
As to `CC(C)c1cc2c(c(O)c1O)[C@@]1(C(=O)O)CCCC(C)(C)[C@@H]1CC2` [CARNOSIC ACID], in experiment [4], the Ki amounted to 3300 nM.

Broadly, the Ki is the dissociation constant of the complex between target and ligand, obtained from inhibition or displacement.
